According to PMC7997032, “Organic synthesis and anti-influenza A virus activity of cyclobakuchiols A, B, C, and D” (PLoS ONE, 2021):
Where “and” joins values, the source holds several entries; their conditions need not be identical. Identical values can stand only once.

Tests used:
[1] = tested on: A/PR/8/34 virus; assay: Influenza A viral growth assay (viral titer of culture media); assay type: cell-based, influenza A H1N1 virus; design: viral titer of culture media, individual replicate / viral titer of culture media, ave: unit not given here; conditions: A/PR/8/34 (PR8), 12.5uM; for viral titer of culture media, ave: average of #1-3 exp (n=9); for viral titer of culture media, individual replicate: replicates of #1-3 exp
[2] = tested on: A/WSN/33 virus; assay: as above; assay type: cell-based, influenza A H1N1 virus; conditions: A/WSN/33 (WSN), 12.5uM; for viral titer of culture media, ave: average of #1-3 exp (n=9); for viral titer of culture media, individual replicate: replicates of #1-3 exp

Structure (SMILES) | viral titer of culture media, ave ([1]; 12h) | viral titer of culture media, individual replicate ([1]; 12h) | viral titer of culture media, ave ([1]; 24h) | viral titer of culture media, individual replicate ([1]; 24h) | viral titer of culture media, ave ([1]; 48h) | viral titer of culture media, individual replicate ([1]; 48h) | viral titer of culture media, ave ([1]; 72h) | viral titer of culture media, individual replicate ([1]; 72h) | viral titer of culture media, ave ([2]; 12h) | viral titer of culture media, individual replicate ([2]; 12h) | viral titer of culture media, ave ([2]; 24h) | viral titer of culture media, individual replicate ([2]; 24h) | viral titer of culture media, ave ([2]; 48h) | viral titer of culture media, individual replicate ([2]; 48h) | viral titer of culture media, ave ([2]; 72h) | viral titer of culture media, individual replicate ([2]; 72h)
C=C[C@]1(C)CC[C@@H](C(=C)C)[C@H](c2ccc(O)cc2)C1 [(1R,3S,4S)-cyclobakuchiol B] | 24444.4 | 70000 and 30000 (2×) and 10000 (3×) and 20000 (3×) | 30000 | 60000 and 50000 (2×) and 20000 (3×) and 10000 (2×) and 30000 | 41111.1 | 40000 (3×) and 30000 (2×) and 80000 (2×) and 20000 and 10000 | 58888.9 | 30000 (2×) and 40000 and 20000 and 10000 (2×) and 250000 and 80000 and 60000 | 12633.3 | 1000 (2×) and 1700 and 10000 (3×) and 20000 (2×) and 40000 | 25455556 | 2000000 (2×) and 300000 and 80000000 and 30000000 and 16000000 and 40000000 and 8800000 and 50000000 | 275666667 | 100000000 and 160000000 and 61000000 and 430000000 and 420000000 and 440000000 and 180000000 and 300000000 and 390000000 | 208055556 | 35000000 and 20000000 and 27500000 and 320000000 and 390000000 and 350000000 and 250000000 and 280000000 and 200000000
C=C[C@]1(C)CC[C@@H](C(C)(C)O)[C@H](c2ccc(O)cc2)C1 [(1R,3S,4S)-cyclobakuchiol D] | 23333.3 | 30000 (4×) and 40000 and 20000 and 10000 (3×) | 46666.7 | 100000 and 30000 and 80000 and 20000 and 10000 (2×) and 50000 (2×) and 70000 | 42222.2 | 40000 (2×) and 30000 and 90000 and 10000 (2×) and 20000 and 80000 and 60000 | 51111.1 | 100000 (2×) and 10000 (3×) and 40000 and 20000 and 90000 and 80000 | 10344.4 | 600 and 2000 and 500 and 20000 (3×) and 10000 (3×) | 25855556 | 2700000 and 4000000 and 1000000 and 30000000 (2×) and 10000000 and 80000000 and 25000000 and 50000000 | 191111111 | 80000000 and 50000000 (2×) and 300000000 (2×) and 250000000 (3×) and 190000000 | 140200000 | 90000000 and 14000000 and 7800000 and 140000000 and 130000000 and 100000000 and 210000000 and 280000000 and 290000000
C=C[C@@](C)(/C=C/c1ccc(O)cc1)CCC=C(C)C [天然型バクチオール] |  | 10000 (4×) and 30000 (3×) and 40000 (2×) | 22222.2 | 50000 and 10000 (5×) and 40000 (2×) and 20000 | 25555.6 | 50000 and 20000 and 40000 and 10000 (3×) and 30000 (3×) | 31111.1 | 30000 (2×) and 20000 (2×) and 40000 (2×) and 10000 (2×) and 80000 |  | 900 and 300 and 1100 and 30000 (2×) and 10000 (3×) and 50000 | 14411111 | 300000 and 1500000 and 900000 and 7000000 and 16000000 and 9000000 and 20000000 and 5000000 and 70000000 | 220000000 | 50000000 and 74000000 and 26000000 and 320000000 and 280000000 and 330000000 and 260000000 and 290000000 and 350000000 | 150111111 | 10000000 and 29000000 and 52000000 and 150000000 and 240000000 and 210000000 and 200000000 (2×) and 260000000
